How the values were obtained:
[1] = target: T1, Aldehyde dehydrogenase, mitochondrial (Homo sapiens, UniProt P05091); test: Inhibition of human ALDH2 using propionaldehyde as substrate preincubated for 2 mins followed by substrate addition by spectrophotometry in presence of NAD+
T1 sequence (P05091 whole entry): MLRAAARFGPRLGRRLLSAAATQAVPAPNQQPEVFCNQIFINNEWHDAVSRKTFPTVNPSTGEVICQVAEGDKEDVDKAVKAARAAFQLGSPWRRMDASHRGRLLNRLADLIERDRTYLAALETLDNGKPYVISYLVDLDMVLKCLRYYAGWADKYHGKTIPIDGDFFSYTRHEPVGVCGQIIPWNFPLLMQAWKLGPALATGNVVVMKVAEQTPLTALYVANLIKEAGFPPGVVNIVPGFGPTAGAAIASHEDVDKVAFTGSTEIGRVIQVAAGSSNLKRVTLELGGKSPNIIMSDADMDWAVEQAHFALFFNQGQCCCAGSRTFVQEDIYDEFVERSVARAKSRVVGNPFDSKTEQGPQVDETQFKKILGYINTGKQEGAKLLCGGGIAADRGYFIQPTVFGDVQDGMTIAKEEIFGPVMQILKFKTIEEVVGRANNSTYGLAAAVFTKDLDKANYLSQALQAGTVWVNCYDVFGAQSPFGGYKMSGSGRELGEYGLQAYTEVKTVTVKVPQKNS

[2] = target: T2, Aldehyde dehydrogenase 1A1 (Homo sapiens, UniProt P00352); test: Inhibition of human ALDH1A1 using propionaldehyde as substrate preincubated for 2 mins followed by substrate addition by spectrophotometry in presence of NAD+
T2 sequence (P00352 whole entry): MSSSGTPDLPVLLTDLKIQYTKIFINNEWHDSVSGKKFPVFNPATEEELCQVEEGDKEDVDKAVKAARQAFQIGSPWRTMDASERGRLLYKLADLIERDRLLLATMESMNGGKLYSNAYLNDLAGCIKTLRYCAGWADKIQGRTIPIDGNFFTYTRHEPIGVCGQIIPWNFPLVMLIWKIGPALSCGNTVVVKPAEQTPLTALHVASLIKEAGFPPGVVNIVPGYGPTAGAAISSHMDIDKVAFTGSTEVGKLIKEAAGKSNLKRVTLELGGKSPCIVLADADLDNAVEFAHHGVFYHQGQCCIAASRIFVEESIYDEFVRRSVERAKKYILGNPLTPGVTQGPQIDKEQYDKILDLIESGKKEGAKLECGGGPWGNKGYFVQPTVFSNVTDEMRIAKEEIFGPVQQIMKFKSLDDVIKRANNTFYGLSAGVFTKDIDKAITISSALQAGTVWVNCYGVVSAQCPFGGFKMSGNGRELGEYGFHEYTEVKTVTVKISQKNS

[3] = target: T3, Aldehyde dehydrogenase, dimeric NADP-preferring (Homo sapiens, UniProt P30838); test: Inhibition of full length human ALDH3A1 expressed in Escherichia coli BL21 (DE3) using benzaldehyde as substrate preincubated for 2 mins followed by substrate addition by spectrophotometry in presence of NADP+
T3 sequence (P30838 whole entry): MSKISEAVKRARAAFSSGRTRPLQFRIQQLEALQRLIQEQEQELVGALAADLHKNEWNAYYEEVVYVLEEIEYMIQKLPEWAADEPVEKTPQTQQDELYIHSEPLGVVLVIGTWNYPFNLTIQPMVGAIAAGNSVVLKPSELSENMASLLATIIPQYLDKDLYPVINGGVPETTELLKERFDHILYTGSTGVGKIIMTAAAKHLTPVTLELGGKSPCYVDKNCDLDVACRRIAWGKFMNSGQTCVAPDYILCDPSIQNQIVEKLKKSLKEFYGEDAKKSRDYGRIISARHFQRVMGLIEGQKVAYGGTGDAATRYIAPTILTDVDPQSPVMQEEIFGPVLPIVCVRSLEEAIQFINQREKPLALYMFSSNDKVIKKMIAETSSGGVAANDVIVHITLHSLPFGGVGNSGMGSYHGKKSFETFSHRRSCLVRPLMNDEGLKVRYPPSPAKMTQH

[4] = target: T3, Aldehyde dehydrogenase, dimeric NADP-preferring; test: Inhibition of human ALDH3A1 by Lineweaver-Burk plot analysis in presence of NADP+
[5] = target: T2, Aldehyde dehydrogenase 1A1; test: Competitive inhibition of human ALDH1A1 using propionaldehyde as substrate by Lineweaver-Burk plot analysis
[6] = target: T2, Aldehyde dehydrogenase 1A1; test: Noncompetitive/mixed type inhibition of human ALDH1A1 by Lineweaver-Burk plot analysis in presence of NAD+
[7] = target: T1, Aldehyde dehydrogenase, mitochondrial; test: Inhibition of human ALDH2 by Lineweaver-Burk plot analysis in presence of NAD+
[8] = target: T3, Aldehyde dehydrogenase, dimeric NADP-preferring; test: Inhibition of human ALDH3A1 using benzaldehyde as substrate by Lineweaver-Burk plot analysis
[9] = target: T1, Aldehyde dehydrogenase, mitochondrial; test: Inhibition of human ALDH2 using propionaldehyde as substrate by Lineweaver-Burk plot analysis

IC50 [1]	IC50 [2]	IC50 [3]	Compound	other results
2.1 µM	0.06 µM		O=C1C(=O)N(Cc2ccccc2)c2ccc(Cl)cc21	
	19 µM	1.6 µM	O=C1C(=O)N(CN2CCN(CN3C(=O)C(=O)c4ccccc43)C2)c2ccccc21	
3.5 µM	0.07 µM		O=C1C(=O)N(CCc2ccccc2)c2ccccc21	
	34 µM	1.2 µM	COc1cccc(CN2CCN(CN3C(=O)C(=O)c4ccccc43)CC2)c1	
	0.57 µM		O=C1C(=O)N(C/C=C/c2ccccc2)c2ccc(Cl)cc21	
0.05 µM	2 µM	18 µM	O=C1C(=O)N(CCc2ccccc2)c2ccc(Br)cc21	
> 100 µM	35 µM	1.6 µM	CN1CCN(CN2C(=O)C(=O)c3ccccc32)CC1	
	> 100 µM	1.5 µM	O=C1C(=O)N(CN2CCN(Cc3ccc(F)cc3)CC2)c2ccccc21	
	> 100 µM	1.7 µM	O=C1C(=O)N(CN2CCN(Cc3cccc(Cl)c3)CC2)c2ccccc21	
	35 µM	1.9 µM	O=C1C(=O)N(CN2CCN(Cc3cccc(F)c3)CC2)c2ccccc21	
2.1 µM	0.58 µM		O=C1C(=O)N(Cc2ccccc2)c2ccc(Br)cc21	
0.41 µM	0.09 µM		O=C1C(=O)N(CCc2ccccc2)c2ccc(Cl)cc21	
1.2 µM	0.05 µM	0.46 µM	O=C1C(=O)N(CCCc2ccccc2)c2ccccc21	
	4 µM	1.8 µM	O=C1C(=O)N(CN2CCN(Cc3ccccc3F)CC2)c2ccccc21	
> 100 µM	12 µM	0.3 µM	O=C1C(=O)N(CN2CCN(Cc3ccc4c(c3)OCO4)CC2)c2ccccc21	
> 100 µM	15 µM	73 µM	O=C1C(=O)N(CN2CCN(Cc3ccc4c(c3)OCO4)CC2)c2ccc(Br)cc21	
2.4 µM	0.72 µM	0.36 µM	Cc1cc(Br)c2c(c1)C(=O)C(=O)N2	Ki [4]: 0.5 µM; Ki [5]: 0.9 µM; Ki [6]: 0.29 µM; Ki [7]: 2.2 µM; Ki [8]: 0.38 µM; Ki [9]: 1 µM
> 100 µM	50 µM	0.93 µM	O=C1C(=O)N(CN2CCN(Cc3ccccc3)CC2)c2ccccc21	
1.7 µM	0.04 µM	0.42 µM	CCCCCN1C(=O)C(=O)c2ccccc21	
> 100 µM	20 µM	1.3 µM	O=C1C(=O)N(CN2CCOCC2)c2ccccc21	
> 100 µM	0.07 µM	0.31 µM	O=C1C(=O)N(C/C=C/c2ccccc2)c2ccccc21	
